Assay results published in patent US8636983B2, “Aminoglycoside and fosfomycin combination for treatment of ventilator associated pneumonia (VAP) and ventilator associated tracheal (VAT) bronchitis” (priority 2011, dated 2014).
≈ marks a conversion by molar mass, not a printed value. Structures can show the parent of a compound that is named as a salt. Where two headings read alike, the source gives them in different places.

Legend:
[1] = pH and osmolality of amikacin starting material and solution; type: physicochemical; conditions: starting material
Source text: Amikacin Base, EP is compendial (Ph Eur) and is manufactured by ACS Dobfar S.p.a under DMF 13762. The API is manufactured in Bergamo, Italy. Fosfomycin Disodium is compendial (Ph Eur) and is manufactured by Ercros, S.A. under DMF 14341. The API is manufactured in Madrid, Spain. Rather than commercial amikacin sulfate, the amikacin base is the starting material. Amikacin base has a pH of approximately 11, and large amounts of HCl are required to neutralize the pH. In the two-part formulation (used to combine with equal volumes of 40 mg/mL fosfomycin to generate the final formulation of 50 mg/mL amikacin, 20 mg/mL fosfomycin), the amikacin 100 mg/mL solution has a final pH of 7.5-7.6 and has an osmolality of approximately 533 mOsmol/kg, of which only approximately 170 mOsmol/kg is due to the amikacin, the balance is from the chloride anion. This concentration of chloride anion provides the permeant anion that will prevent cough.
In contrast, the starting pH of amikacin sulfate is 3.5-5.5 and little or no HCl is needed to neutralize the pH of the solution. Note that in the Neiderman paper (supra) amikacin sulfate was delivered as an aerosol to patients with VAP, and bronchospasm was reported in some patients. […] As described above, a final formulation has an amikacin concentration of 50 mg/ml and chloride anion concentration of approximately 265 meq/liter. […]

Klebsiella pneumoniae = experiment: MIC by CLSI agar dilution, amikacin-resistant K. pneumoniae strains (SENTRY); type: cell-based; conditions: 20 K. pneumoniae isolates
Source text: (§1) Sixty-two amikacin-resistant strains were selected from a worldwide antimicrobial surveillance collection (SENTRY), which contains 35,000 organisms from six continents (56/62 organisms collected in 2011).

clinical = conditions: both, human, in vivo
Experimental: Adult patients having a clinical diagnosis of VAP, with a Gram-positive or Gram-negative organism in a tracheal aspirate sample were expected to be on mechanical ventilation for ≧3 days.
Each adult patient received 3 escalating doses of a mixture of 50 mg/mL amikacin and 20 mg/mL fosfomycin, with doses separated by 24±2 hours (Table 1).
All treatments were administered with a single patient, multi-treatment nebulizer (Investigational eFlow® Inline Nebulizer System; PARI Pharma GMBH, Starnberg, Germany), positioned in the inspiratory tubing between the ventilator and the patient. The nebulizer remained inline until all treatments were delivered.
A placebo: 0.9% normal saline, having a volume matched to the antibiotic dosing schedule was delivered via the PARI Investigational eFlow® Inline Nebulizer System in mechanically ventilated patients.
The eFlow® Inline Nebulizer System was positioned in the inspiratory tubing between the Puritan Bennett 840 Ventilator and the patient. Once in place, the nebulizer remained inline until all study-drug doses were delivered. Humidification continued during the nebulization of the formulation and the delivery of the entire dose.
Patients are male or female between 18 years and 80 years of age with clinical diagnosis of VAP or VAT, a Gram-positive or Gram-negative bacteria on Gram stain of the tracheal aspirate and were expected to be on mechanical ventilation for at least three days.

Acinetobacter baumannii = experiment: MIC by CLSI agar dilution, amikacin-resistant A. baumannii strains (SENTRY); type: cell-based; conditions: for MIC50: 21 A. baumannii isolates
Source text: as §1

Pseudomonas aeruginosa [2] = conditions: 1477 Pseudomonas aeruginosa isolates, Zhanel et al.; cited from earlier work
[3] = test system: Stenotrophomonas maltophilia; conditions: Zhanel et al.; cited from earlier work
[4] = Aerosol particle size distribution (MMAD) in dog study; type: physicochemical; conditions: analytical methods, eFlow Inline Nebulizer aerosol
in vivo [5] = conditions: dog; for Cmax: both, beagle
Experimental: A GLP (Good Laboratory Practice) study was performed using 24 beagle dogs allocated to four dose groups (three males and three females per group) and exposed to aerosol generated with the PARI Investigational eFlow® Inline Nebulizer System using a closed-faced mask fitted with a mouth tube. The aerosols contained either control (water for injection) in Group 1 or a combined formulation containing 50 mg/mL amikacin and 20 mg/mL fosfomycin pH adjusted with HCl for Groups 2 to 4. Aerosol concentrations were determined on Days 1 and 7. The treatment period was for seven days with termination of the dogs on Day 8.
Toxicokinetic parameters were estimated using WinNonlin pharmacokinetic software version 5.2.1 (Pharsight Corp.). A non-compartmental approach consistent with the extravascular route of administration was used for parameter estimation. All parameters were generated from individual amikacin and fosfomycin concentrations in plasma from Days 1 and 7.

Pseudomonas aeruginosa [6] = experiment: MIC by CLSI agar dilution, amikacin-resistant P. aeruginosa strains (SENTRY); type: cell-based; conditions: 21 P. aeruginosa isolates
Source text: as §1

in vivo [7] = experiment: in vivo; parameters: species or system beagle dogs; conditions: both sexes, beagle, dog, delivered as combination antibiotic aerosol, 7-day treatment
Experimental: Aerosol concentrations were determined on Days 1 and 7.

[8] = test system: 62 Gram-negative, amikacin-resistant pathogens; experiment: MIC by CLSI agar dilution, all 62 amikacin-resistant isolates; type: cell-based; conditions: for MIC50: All 62 isolates
Source text: as §1

[9] = test system: methicillin-resistant Staphylococcus aureus (MRSA); conditions: 148 MRSA isolates, data from the 1980s; cited from earlier work
[10] = of water; cited from earlier work
[11] = inhaled; cited from earlier work
[12] = read-out: Median (MIC50) Amikacin MIC
[13] = read-out: Median (MIC50) Fosfomycin MIC

In the case of NCC[C@H](O)C(=O)N[C@@H]1C[C@H](N)[C@@H](O[C@H]2O[C@H](CN)[C@@H](O)[C@H](O)[C@H]2O)[C@H](O)[C@H]1O[C@H]1O[C@H](CO)[C@@H](O)[C@H](N)[C@H]1O [Amikacin base], the pH [1] is reported as “approximately 11”.

For NCC[C@H](O)C(=O)N[C@@H]1C[C@H](N)[C@@H](O[C@H]2O[C@H](CN)[C@@H](O)[C@H](O)[C@H]2O)[C@H](O)[C@H]1O[C@H]1O[C@H](CO)[C@@H](O)[C@H](N)[C@H]1O [Amikacin, amikacin], the MIC50 (Klebsiella pneumoniae; [12]) was 256 µg/mL (≈ 437 µM), the Kp (clinical) was over 2000 and the “Mean amikacin Cmax in tracheal aspirate, fold higher than MIC 90 for P. aeruginosa” value (clinical) was at least 406 fold. For the same compound, the “amikacin Cmax in tracheal aspirate, fold higher than MIC90 of P. aeruginosa” value (clinical) was at least 89 fold, the MIC (Acinetobacter baumannii; 5 A. baumannii isolates with high amikacin resistance) was over 1020 µg/mL and the MIC50 (Acinetobacter baumannii; [12]) was 8 µg/mL (≈ 13.7 µM). For the same compound, the “MIC 90” value (Pseudomonas aeruginosa [2]) was 32 µg/mL (≈ 54.6 µM), the “MIC 90” value [3] was over 64 µg/mL and the “particle size distribution (MMAD)” value [4] was 2.80 μm. The Cmax (in vivo [5]) was 13200 to 39300 ng/mL, the “accumulation following repeat dosing” value (in vivo [5]) was “no clear indication of accumulation” and the MIC50 (Pseudomonas aeruginosa [6]; [12]) was 128 µg/mL (≈ 219 µM). The NOAEL at 7 days (in vivo [7]) was 117 mg/kg/day, the MIC50 [8, 12] was 128 µg/mL (≈ 219 µM) and the “amikacin concentration required to inhibit all 62 isolates” value ([8]; FIG. 4) was over 1024 µg/mL.

In the case of C[C@@H]1O[C@@H]1P(=O)(O)O [Fosfomycin, fosfomycin], the MIC50 (Klebsiella pneumoniae; [13]) is given as 25.6 µg/mL (≈ 185 µM), the “MIC 90” value [9] is given as 32 µg/mL (≈ 232 µM) and the Kp (clinical) is given as over 2000. For the same compound, the “Mean fosfomycin Cmax in tracheal aspirate, fold higher than MIC 90 for MRSA” value (clinical) was 281 fold, the “fosfomycin Cmax in tracheal aspirate, fold higher than MIC 90 of MRSA” value (clinical) was at least 54 fold and the “fosfomycin tracheal aspirate concentrations, fold above the MIC 90 for MRSA” value (clinical; 6 h) was at least 2.2 fold. The MIC50 (Acinetobacter baumannii; [13]) was 205 µg/mL (≈ 1480 µM), the “particle size distribution (MMAD)” value [4] was 2.75 μm and the Cmax (in vivo [5]) was 8700 to 28700 ng/mL. The “accumulation following repeat dosing” value (in vivo [5]) was “no clear indication of accumulation”, the MIC50 (Pseudomonas aeruginosa [6]; [13]) was 51.2 µg/mL (≈ 371 µM) and the NOAEL at 7 days (in vivo [7]) was 47.5 mg/kg/day. The MIC50 [8, 13] was 51.2 µg/mL (≈ 371 µM).

For C[C@@H]1O[C@@H]1P(=O)(O)O [disodium salt of fosfomycin, Fosfomycin disodium], the solubility [10] is given as 50 mg/mL.

In the case of NC[C@H]1O[C@H](O[C@H]2[C@H](O)[C@@H](O[C@H]3O[C@H](CO)[C@@H](O)[C@H](N)[C@H]3O)[C@H](N)C[C@@H]2N)[C@H](N)C[C@@H]1O [tobramycin], the airway half-life [11] is given as “about 2 hours”.
